Assay results taken from US20090281137A1, “INDOL-2-ONE DERIVATIVES FOR THE TREATMENT OF CENTRAL NERVOUS DISORDERS, GASTROINTESTINAL DISORDERS AND CARDIOVASCULAR DISORDERS” (priority 2004, published 2009).
Where a name gives a salt, the structure may show the parent alone.

Test system: not given
Experiment: not given
Conditions: not given

melting point [°C]	SMILES
142 to 145	CCC1(CCCCN2CC=C(c3ccc(Cl)cc3)CC2)C(=O)Nc2ccccc21 (stereo not drawn)
112 to 114	CCC1(CCCCN2CC=C(c3cccc(Cl)c3)CC2)C(=O)Nc2ccc(F)cc21 (stereo not drawn)
146 to 148	CCC1(CCCCN2CC=C(c3ccc(Cl)cc3)CC2)C(=O)Nc2ccc(F)cc21 (stereo not drawn)
143 to 144	CCC1(CCCCN2CCc3sccc3C2)C(=O)Nc2ccccc21 (stereo not drawn) (as salt: hydrochloride) [Example 29, 3-[4-(6,7-Dihydro-4H-thieno[3,2-c]pyridin-5-yl)-butyl]-3-ethyl-1,3-dihydro-2H-indol-2-one monohydrochloride]
96 to 98	CCC1(CCCCCN2CCc3sc(Cl)cc3C2)C(=O)Nc2ccccc21 (stereo not drawn) (as salt: hydrochloride) [Example 37, 3-[5-(2-Chloro-6,7-dihydro-4H-thieno[3,2-c]-pyridin-5-yl)-pentyl]-3-ethyl-1,3-dihydro-2H-indol-2-one monohydrochloride]
193 to 195	CCC1(CCCCCN2CCc3sccc3C2)C(=O)Nc2ccccc21 (stereo not drawn) (as salt: oxalate) [Example 36, 3-[5-(6,7-Dihydro-4H-thieno[3,2-c]pyridin-5-yl)-pentyl]-3-ethyl-1,3-dihydro-2H-indol-2-one monooxalate]
130 to 132	CCC1(CCCN2CCc3sccc3C2)C(=O)Nc2ccccc21 (stereo not drawn) [Example 23, 3-[3-(6,7-Dihydro-4H-thieno[3,2-c]pyridin-5-yl)-propyl]-3-ethyl-1,3-dihydro-2H-indol-2-one]
66 to 69	CCC1(CCCN2CCc3sccc3C2)C(=O)Nc2ccc(Cl)cc21 (stereo not drawn) [Example 24, 5-Chloro-3-[3-(6,7-dihydro-4H-thieno[3,2-c]-pyridin-5-yl)-propyl]-3-ethyl-1,3-dihydro-2H-indol-2-one]
149 to 151	CCC1(CCCCN2CCc3sccc3C2)C(=O)Nc2ccc(Br)cc21 (stereo not drawn) [Example 27, 5-Bromo-3-[4-(6,7-dihydro-4H-thieno[3,2-c]pyridin-5-yl)-butyl]-3-ethyl-1,3-dihydro-2H-indol-2-one]
114 to 116	CC(C)CC1(CCCCN2CCc3sccc3C2)C(=O)Nc2ccccc21 (stereo not drawn) [Example 28, 3-[4-(6,7-Dihydro-4H-thieno[3,2-c]pyridin-5-yl)-butyl]-3-isobutyl-1,3-dihydro-2H-indol-2-one]
138 to 140	CCC1(CCCCN2CCc3sccc3C2)C(=O)Nc2ccc(C)cc21 (stereo not drawn) [Example 30, 3-[4-(6,7-Dihydro-4H-thieno[3,2-c]pyridin-5-yl)-butyl]-3-ethyl-5-methyl-1,3-dihydro-2H-indol-2-one]
194 to 196	CCC1(CCCCN2CCc3sccc3C2)C(=O)Nc2c(Cl)cc(F)cc21 (stereo not drawn) [Example 33, 7-Chloro-3-[4-(6,7-dihydro-4H-thieno[3,2-c]-pyridin-5-yl)-butyl]-3-ethyl-5-fluoro-1,3-dihydro-2H-indol-2-one]
117 to 119	CCC1(CCCCN2CCc3sc(Cl)cc3C2)C(=O)Nc2ccccc21 (stereo not drawn) [Example 34, 3-[4-(2-Chloro-6,7-dihydro-4H-thieno[3,2-c]-pyridin-5-yl)-butyl]-3-ethyl-1,3-dihydro-2H-indol-2-one]
155 to 157	CCC1(CCCCN2CCc3sccc3C2)C(=O)Nc2cc(F)c(Cl)cc21 (stereo not drawn) [Example 35, 5-Chloro-3-[4-(6,7-dihydro-4H-thieno[3,2-c]-pyridin-5-yl)-butyl]-3-ethyl-6-fluoro-1,3-dihydro-2H-indol-2-one]

SMILES	melting point [°C]
CCC1(CCCCN2CC=C(c3ccc(F)cc3)CC2)C(=O)Nc2ccccc21 (stereo not drawn) (as salt: hydrochloride) [Example 39, 3-Ethyl-3-{4-[4-(4-fluorophenyl)-1,2,3,6-tetrahydropyridin-1-yl]-butyl}-1,3-dihydro-2H-indol-2-one monohydrochloride]	108 to 111

Test system: Male Sprague-Dawley rats
Experiment: Elevated plus-maze in rats
Type: in vivo
Conditions: p.o., 60 min after treatment, 5 min test, increase in time spent in or number of entries into the open arms
From the text: The anxiolytic effect of the compounds according to the invention was investigated on rats according to the so-called elevated plus-maze test (S. Pelow, P. Chopin, S. E. File, J. Briley: Neurosci. Methods 14, p. 149 (1985)).
A wooden cross elevated to 50 cm above the floor, 15 cm wide with 100 cm long arms was used for the experiments. The sides and ends of two opposite arms of the cross were equipped with 40 cm high walls, however, the arms were open to the 15 cm×15 cm central area (closed arms). The two other opposite arms were not encircled by walls (open arms).
Male Sprague-Dawley rats weighing 200-220 g were used for the experiments. The animals were placed in the central area of the equipment 60 min after treatment and the following four parameters have been observed for the 5 min test time: […]
time spent in the open arms (sec), time spent in the closed arms (sec), number of entries into the open arms, number of entries into the closed arms.
The effect was expressed as percent increase in either the time spent in the open arms or number of entries into the open arms. MEDs (minimal effective doses) were determined for each compound.

SMILES	MED (minimal effective dose)
CCC1(CCCCCN2CCc3sccc3C2)C(=O)Nc2ccccc21 (stereo not drawn) [Example 36, 3-[5-(6,7-Dihydro-4H-thieno[3,2-c]pyridin-5-yl)-pentyl]-3-ethyl-1,3-dihydro-2H-indol-2-one monooxalate]	≦1.0 mg/kg p.o.
CCC1(CCCCN2CC=C(c3ccc(F)cc3)CC2)C(=O)Nc2ccccc21 (stereo not drawn) [Example 39, 3-Ethyl-3-{4-[4-(4-fluorophenyl)-1,2,3,6-tetrahydropyridin-1-yl]-butyl}-1,3-dihydro-2H-indol-2-one monohydrochloride]	0.01 mg/kg p.o.

Biological target: T1, 5-HT1A receptors (Rattus norvegicus, UniProt P19327)
T1 construct: from tissue; host or cells: rat frontal cortex membrane preparation
T1 sequence (P19327 1-422): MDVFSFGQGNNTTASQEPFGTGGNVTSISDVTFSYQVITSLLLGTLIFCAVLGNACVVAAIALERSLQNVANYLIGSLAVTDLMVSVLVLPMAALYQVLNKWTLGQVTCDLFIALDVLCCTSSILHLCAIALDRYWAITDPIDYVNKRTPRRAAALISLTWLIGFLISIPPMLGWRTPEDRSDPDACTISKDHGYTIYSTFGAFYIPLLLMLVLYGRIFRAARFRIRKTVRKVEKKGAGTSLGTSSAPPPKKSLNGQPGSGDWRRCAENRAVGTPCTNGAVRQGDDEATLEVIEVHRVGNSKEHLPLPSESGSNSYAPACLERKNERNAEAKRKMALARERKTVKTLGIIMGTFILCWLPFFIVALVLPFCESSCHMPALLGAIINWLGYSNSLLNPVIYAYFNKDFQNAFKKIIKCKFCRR
Experiment: 5-HT1A receptor binding experiment
Conditions: isolated frontal cortex membrane preparation of rats, tritiated 8-OH-DPAT ligand, 25° C., 30 minutes
Method: Binding of the compounds of the general Formula (I) to 5-HT1A receptors was investigated according to the method of Peroutka (S. J. Peroutka: J. Neurochem. 47, p. 529 (1986)).
Receptor bindings were determined from isolated frontal cortex membrane preparation of rats by using tritiated 8-hydroxy-N,N-dipropyl-2-amino-tetraline (8-OH-DPAT) ligand. For the determination of non-specific binding 10 μM serotonin creatinine sulfate was used. The following conditions were applied: incubation […] volume: 250 μl, incubation temperature: 25° C., incubation time: 30 minutes. The reaction was terminated by the addition of 9 ml of 50 mM ice-cold TRIS-HCl buffer (pH=7.7) and quick vacuum filtration using Whatman GFIB fibreglass filtering paper. Radioactivity of the filter boards was measured with the aid of a liquid scintillation spectrometer.
IC50 is the concentration whereby the difference between whole binding and non-specific binding in the presence of 10 μM serotonin creatinine sulfate is 50%. The compounds with an IC50 value smaller than […] were considered effective in this test.

IC50 [nM]	SMILES
> 100	CCC1(CCCCN2CCc3sccc3C2)C(=O)Nc2ccc(Cl)cc21 (stereo not drawn) [Example 26, 5-Chloro-3-[4-(6,7-dihydro-4H-thieno[3,2-c]-pyridin-5-yl)-butyl]-3-ethyl-1,3-dihydro-2H-indol-2-one monohydrochloride]
> 100	CCC1(CCCCN2CCc3sccc3C2)C(=O)Nc2ccccc21 (stereo not drawn) [Example 29, 3-[4-(6,7-Dihydro-4H-thieno[3,2-c]pyridin-5-yl)-butyl]-3-ethyl-1,3-dihydro-2H-indol-2-one monohydrochloride]
> 100	CCC1(CCCCCN2CCc3sccc3C2)C(=O)Nc2ccccc21 (stereo not drawn) [Example 36, 3-[5-(6,7-Dihydro-4H-thieno[3,2-c]pyridin-5-yl)-pentyl]-3-ethyl-1,3-dihydro-2H-indol-2-one monooxalate]
> 100	CCC1(CCCCCN2CCc3sc(Cl)cc3C2)C(=O)Nc2ccccc21 (stereo not drawn) [Example 37, 3-[5-(2-Chloro-6,7-dihydro-4H-thieno[3,2-c]-pyridin-5-yl)-pentyl]-3-ethyl-1,3-dihydro-2H-indol-2-one monohydrochloride]
